Data reported in patent US20120021434A1, “METHOD FOR TREATING B CELL REGULATED AUTOIMMUNE DISORDERS” (Synta Pharmaceuticals Corp., priority 2005, published 2012).

How the values were obtained:
Type in all cases: cell-based
p52 = p52 nuclear translocation in IFNγ+LPS-stimulated THP1 cells (immunoblot); settings: 100 nM, 6 h
Method: RelB and p52 are two members of Rel family, which are preferentially complexed with each other. To determine the effect of Compound 50 on p52 and Rel-B nuclear translocation, THP1 cells were stimulated with IFNγ+LPS in either the presence or absence of 100 nM Compound 50 and the distribution of p52 and Rel-B was determined by immunoblotting of nuclear at 6 h post-treatment.

c-Rel = target: T1, c-Rel (Homo sapiens, UniProt Q04864); assay: Nuclear c-Rel in PMA+ionomycin stimulated Jurkat T cells (immunoblot); settings: 100 nM
T1 construct: a western blot assay of THP1 nuclear c-Rel, p50 and p65 proteins was carried out; endogenous in cells; host or cells: THP-1; Jurkat
T1 sequence (Q04864 1-619): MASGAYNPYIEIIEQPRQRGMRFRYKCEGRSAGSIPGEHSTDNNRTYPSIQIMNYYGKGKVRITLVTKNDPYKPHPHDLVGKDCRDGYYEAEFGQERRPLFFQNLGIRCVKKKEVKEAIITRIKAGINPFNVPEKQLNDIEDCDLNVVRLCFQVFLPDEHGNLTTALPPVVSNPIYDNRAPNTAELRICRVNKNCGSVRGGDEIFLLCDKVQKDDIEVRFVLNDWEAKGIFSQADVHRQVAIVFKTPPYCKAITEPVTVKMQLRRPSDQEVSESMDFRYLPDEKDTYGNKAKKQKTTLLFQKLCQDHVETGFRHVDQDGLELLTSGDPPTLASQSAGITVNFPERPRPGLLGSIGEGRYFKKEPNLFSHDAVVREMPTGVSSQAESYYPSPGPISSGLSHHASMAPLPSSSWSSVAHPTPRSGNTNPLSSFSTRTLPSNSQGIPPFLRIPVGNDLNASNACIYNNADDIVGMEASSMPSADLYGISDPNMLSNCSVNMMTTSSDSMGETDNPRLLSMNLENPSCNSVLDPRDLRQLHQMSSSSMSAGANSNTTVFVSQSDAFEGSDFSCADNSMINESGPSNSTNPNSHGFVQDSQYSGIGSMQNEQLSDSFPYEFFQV
Source text: We therefore examined the accumulation of nuclear c-Rel in these cells by immunoblot analysis.

IKKβ = assay: Phosphorylation of IKKβ in IFNγ/LPS-stimulated THP-1 cells (immunoblot); settings: THP-1 whole cell extracts, IFNγ/LPS 5 min to 1 hr, 500 nM
Method: The whole cell extracts were prepared using Cell Lysis Buffer (Cell Signaling, Beverly, Mass., USA) according to the manufacture's instruction.
The phosphorylation of IKK is an early step in NF-κB activation. To determine whether Compound 50 inhibits the activation of the IKK complex, the level of phosphorylated IKKβ was investigated in drug-treated, LPS-stimulated cells. Whole cell extracts were prepared from THP-1 cells that had been stimulated with IFNγ/LPS for 5 min, 15 min 30 min and 1 hr in the either the absence or presence of 500 nM Compound 50. Phosphorylated IKKβ was determined by immunoblot analysis using an anti-phospho IKKβ antibody. […] Compound 50 treatment had no effect on the induction of phosphorylated IKKβ.

NF-κB p65 = assay: Immunofluorescence of p65 nuclear accumulation in LPS-stimulated RAW264.7 cells; settings: RAW264.7, LPS 5 μg/mL, 100 nM, 4 hours
Method: We next examined whether compound 50 can block the accumulation of c-Rel in the nucleus of cells induced by LPS (FIG. 2). RAW264.7 cells cultured in DMEM with 10% BCS were split and seeded into 4-well chambered slides at 80,000 cells/well density. The cells were then treated with DMSO, Compound 50 (100 nM), LPS (Sigma, 5 μg/mL), LPS (5 μg/mL)+Compound 50 (100 nM) for 4 hours and fixed with 3% paraformaldehyde solution (1×PBS) after 1× quick rinse with 1×PBS. Fixed cells were permeablized with 0.2% TX100 and immunostained with anti-cRel antibody (SC70, Santa Cruz, 1:200 dilution) or anti-NF-κB p65 antibody (SC109, Santa Cruz, 1:100 dilution), and subsequently stained with Alexa Fluor 488 Goat-anti-Rabbit secondary antibody and DAPI (Molecular Probes, 1.1 μM). Images were obtained with CoolSNAP monochrome CCD camera on a Nikon inverted microscope TE300 using identical imaging parameters and were processed identically with Photoshop CS software. As observed previously, c-Rel localized to the cytoplasm in DMSO-treated cells and to the nucleus in LPS-treated cells. […] We also examined whether Compound 50 blocks the nuclear accumulation of another NF-κB/Rel family member, p65, in LPS-stimulated RAW cells (FIG. 3). As observed for c-Rel, p65 was localized to the cytoplasm in DMSO and Compound 50-treated cells and to the nucleus in LPS-stimulated cells. […]

[1] = system: IL-12 promoter (p40 expression); assay: IL-12 promoter-Luc reporter with ICSBP over-expression; settings: co-transfection of ICSBP construct with IL-12 promoter-Luc reporter
Source text: ICSBP, whose expression was reduced by Compound 50, was over-expressed using co-transfection with the IL-12 promoter-Luc report system. The over-expression construct of ICSBP was generated by PCR from cDNA of human PBMC using primers as follow: ICSBP-exp-F: 5′-[…]-3′ (SEQ ID NO:1) and ICSBP-exp-R: 5′-[…]-3′ (SEQ ID NO:2), the resulting PCR products was ligated to pCI vector (Promega).

In the case of `Cc1cccc(/C=N/Nc2cc(N3CCOCC3)nc(OCCc3ccccn3)n2)c1` [Compound 50, N-(3-Methyl-benzylidene)-N′-[6-morpholin-4-yl-2-(2-pyridin-2-yl-ethoxy)-pyrimidin-4-yl]-hydrazine], the “nuclear p52” value (p52) is reported as “No significant difference”, the “levels of nuclear c-Rel” value (c-Rel) is reported as “reduced” and the “induction of phosphorylated IKKβ” value (IKKβ) is reported as “no effect”. For the same compound, the “LPS-induced p65 nuclear accumulation” value (NF-κB p65) was “not blocked” and the “inhibition of p40 expression under ICSBP over-expression” value [1] was “decreased the inhibition”.
